Paper PMC7880690, “Chemical genetics and proteome-wide site mapping reveal cysteine MARylation by PARP-7 on immune-relevant protein targets” (eLife, 2021)

What was measured:
[1] = target: T1, IG-PARP-12 (I660G PARP-12) (Homo sapiens, UniProt Q9H0J9, I660G); assay: Labeling by orthogonal NAD+ analogs with PARP-12 I660G mutant; type: biochemical; conditions: compared to 5-Bn-6-a-NAD+
T1 construct: GFP; expressed in transfected cells
Description: Figure 1. A chemical genetic strategy for identifying the direct MARylation targets of PARP-7. (a) Schematic of chemical genetic approach for identifying direct targets of PARP-7. (b) Crystal structure of human PARP1 bound to the non-hydrolyzable NAD^+ analog benzamide adenine dinucleotide (BAD). PDB: 6bhv. […] (c) Chemical structure of the clickable, orthogonal NAD^+ analogs. 5-Bn-2-e-NAD^+ is the optimized substrate for the floor position engineered PARP-7, IG-PARP-7. 5-Bn-6-a-NAD^+ was used in our previous studies by other floor position engineered PARPs (e.g. PARP14). (d) 5-Bn-2-e-NAD^+ is an efficient substrate for IG-PARP-7. HEK293T cells were transfected with either GFP-WT-PARP-7 (control) or GFP-IG-PARP-7. Cell lysates were prepared and incubated with either 5-Bn-2-e-NAD^+ or 5-Bn-6-a-NAD^+ (100 µM). Following copper-catalyzed click chemistry with biotin-azide, proteins were resolved by SDS-PAGE and biotinylated proteins were detected by Western blot detection using Streptavidin-HRP. Biotinylated proteins represent direct MARylation targets of PARP-7. Figure 1—figure supplement 1. Enrichment of PARP-7 MARylation targets and labeling of PARP-12 IG targets using a chemical genetic approach. (a) Labeling of PARP-7 MARylation targets was performed as described in Figure 1. Neutravidin agarose was used to enrich biotinylated proteins (i.e. MARylation targets). […]

[2] = target: PARP1FL (Homo sapiens, UniProt P09874); assay: ADP-ribosylation plate assay, PARP1FL
PARP1FL, sequence (P09874 whole entry): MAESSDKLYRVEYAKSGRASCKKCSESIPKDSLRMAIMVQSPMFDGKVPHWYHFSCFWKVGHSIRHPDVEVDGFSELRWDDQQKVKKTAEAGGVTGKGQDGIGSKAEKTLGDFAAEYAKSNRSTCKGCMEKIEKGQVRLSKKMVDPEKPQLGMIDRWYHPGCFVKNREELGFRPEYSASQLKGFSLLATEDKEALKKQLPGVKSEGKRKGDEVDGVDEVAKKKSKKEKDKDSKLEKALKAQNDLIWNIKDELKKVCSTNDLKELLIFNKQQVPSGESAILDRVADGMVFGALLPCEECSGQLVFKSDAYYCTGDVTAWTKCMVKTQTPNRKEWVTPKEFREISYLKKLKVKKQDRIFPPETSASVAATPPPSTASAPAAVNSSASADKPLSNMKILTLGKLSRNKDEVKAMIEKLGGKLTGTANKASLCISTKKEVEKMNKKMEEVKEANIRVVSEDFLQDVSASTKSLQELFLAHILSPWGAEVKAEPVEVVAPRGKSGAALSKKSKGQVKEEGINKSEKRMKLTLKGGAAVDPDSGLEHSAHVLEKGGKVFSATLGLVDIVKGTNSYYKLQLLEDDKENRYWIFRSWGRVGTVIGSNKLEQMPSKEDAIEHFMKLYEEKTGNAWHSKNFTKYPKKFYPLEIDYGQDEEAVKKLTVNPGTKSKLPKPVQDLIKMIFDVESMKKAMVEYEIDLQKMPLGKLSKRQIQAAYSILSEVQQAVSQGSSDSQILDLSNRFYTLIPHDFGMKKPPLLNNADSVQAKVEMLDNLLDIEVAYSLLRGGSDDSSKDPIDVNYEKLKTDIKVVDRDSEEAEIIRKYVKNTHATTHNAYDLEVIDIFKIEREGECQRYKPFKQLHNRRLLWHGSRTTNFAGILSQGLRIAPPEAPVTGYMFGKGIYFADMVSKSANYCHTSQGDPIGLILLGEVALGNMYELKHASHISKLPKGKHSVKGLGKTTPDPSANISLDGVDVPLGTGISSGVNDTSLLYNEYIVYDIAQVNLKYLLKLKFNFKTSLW

[3] = target: T2, PARP15cat (Homo sapiens, UniProt Q460N3); assay: ADP-ribosylation plate assay, PARP15cat
T2 sequence (Q460N3 482-678 limits assumed): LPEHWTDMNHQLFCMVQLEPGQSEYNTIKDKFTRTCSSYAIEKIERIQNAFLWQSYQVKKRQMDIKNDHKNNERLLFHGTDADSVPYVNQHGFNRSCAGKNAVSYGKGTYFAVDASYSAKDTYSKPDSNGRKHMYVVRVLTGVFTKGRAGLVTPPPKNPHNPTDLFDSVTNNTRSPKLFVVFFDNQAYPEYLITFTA

[4] = target: T3, PARP5bcat (Homo sapiens, UniProt Q9H2K2); assay: ADP-ribosylation plate assay, PARP5bcat; type: biochemical; conditions: in vitro plate assay; ± SEM, at least two biological replicates
T3 construct: PARP5bcat
T3 sequence (Q9H2K2 959-1164): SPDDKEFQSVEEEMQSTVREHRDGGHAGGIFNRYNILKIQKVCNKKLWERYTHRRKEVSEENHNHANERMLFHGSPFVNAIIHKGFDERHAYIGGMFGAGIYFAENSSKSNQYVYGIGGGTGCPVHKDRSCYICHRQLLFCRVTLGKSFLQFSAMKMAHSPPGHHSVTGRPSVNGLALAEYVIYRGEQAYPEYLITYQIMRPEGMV

T1 sequence (Q9H0J9 whole entry I660G): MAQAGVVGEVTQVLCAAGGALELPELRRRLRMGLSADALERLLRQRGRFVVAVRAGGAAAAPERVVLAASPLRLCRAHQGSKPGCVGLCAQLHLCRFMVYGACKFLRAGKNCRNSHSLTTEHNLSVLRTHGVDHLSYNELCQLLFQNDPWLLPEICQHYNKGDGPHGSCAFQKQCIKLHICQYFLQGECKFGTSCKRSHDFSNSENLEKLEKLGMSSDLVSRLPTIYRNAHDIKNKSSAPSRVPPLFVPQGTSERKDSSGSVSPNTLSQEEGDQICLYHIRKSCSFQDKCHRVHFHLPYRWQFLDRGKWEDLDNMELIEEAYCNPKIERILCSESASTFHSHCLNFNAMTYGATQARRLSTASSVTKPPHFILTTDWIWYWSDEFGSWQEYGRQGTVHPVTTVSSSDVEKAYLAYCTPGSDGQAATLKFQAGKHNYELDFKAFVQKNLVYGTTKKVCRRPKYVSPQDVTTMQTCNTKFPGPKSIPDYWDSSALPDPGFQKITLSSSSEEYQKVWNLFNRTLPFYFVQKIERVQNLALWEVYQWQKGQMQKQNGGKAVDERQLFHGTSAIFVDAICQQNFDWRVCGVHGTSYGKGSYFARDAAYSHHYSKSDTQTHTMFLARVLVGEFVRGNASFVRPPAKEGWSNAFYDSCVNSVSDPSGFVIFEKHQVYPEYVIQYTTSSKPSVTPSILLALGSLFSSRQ

| Structure (SMILES) | substrate for IG-PARP-12 [1] | IC50 [2] [nM] | IC50 [3] [nM] | IC50 [4] [nM] |
| --- | --- | --- | --- | --- |
| C#Cc1nc(N)c2ncn(C3OC(COP(=O)(O)OP(=O)([O-])OCC4OC([n+]5cc(Cc6ccccc6)cc(C(N)=O)c5)C(O)C4O)C(O)C3O)c2n1 (stereo not shown) [5-Bn-2-e-NAD^+, 5-benzyl-2-ethynyl-NAD^+] | better substrate | – | – | – |
| N#Cc1ccc(N2CCN(C(=O)c3cc(Cc4n[nH]c(=O)c5ccccc45)ccc3F)CC2)nc1 [Phthal01, 6-(4-(2-fluoro-5-((4-oxo-3,4-dihydrophthalazin-1-yl)methyl)benzoyl)piperazin-1-yl)nicotinonitrile] | – | 21 | 2000 ± 300 | 2520 ± 200 |
